Data set [1] deals with mCYP1A2. Briefly: ex vivo mCYP1A2 activity in mouse liver microsomes (phenacetin O-deethylation). To be noted: daily oral 100 mg/kg body weight. An excerpt:
Phenacetin and nifedipine are substrates of CYP1A2 and CYP3A11, respectively. Both substrates are converted via the CYP enzyme to paracetamol and dehydronefedipine, respectively. The concentrations of paracetamol and dehydronefedipine were used to determine the activities of mCYP1A2 and mCYP3A11. The effects of atractylodin and β-eudesmol on mCYP1A2 and mCYP3A11 activities were, respectively, determined by measuring paracetamol (mCYP1A2-dependent metabolite) and dehydronifiedipine (mCYP3A11-dependent metabolite) concentrations.
Eight-week-old male ICR (Imprinting Control Region) mice weighing 35–40 g were used to investigate the modulatory effects of atractylodin and β-eudesmol on mCYP1A2 and mCYP3A11. The study protocol was approved by the Ethics Committee for Animal Research at Thammasat University (protocol number 016/2020). All animals were obtained from Nomura Siam International Co., Ltd. (Bangkok, Thailand). The animals were acclimatized for one week before the experiments. A total of 36 mice were allocated to three groups (i) control group (3 mice), (ii) atractylodin-treated group, and (iii) β-eudesmol-treated group. For atractylodin and β-eudesmol-treated groups, animals were fed with 100 mg/kg body weight of each compound for 1, 7, 14, and 21 (3 mice for each dose). Experiments were performed under the guidelines for the care and use of laboratory animals in a controlled environment of 12 h dark/light cycle, temperature 22 ± 2 °C, and relative humidity 30–70% at the Thammasat University Animal Center. Animals were observed daily for changes in signs and symptoms by a veterinarian. Mice were allowed access to the food pellets and water ad libitum.
Mouse liver samples were cut into small pieces, and the liver microsomes were prepared as described previously. The concentrations of proteins in the microsomes were determined using Pierce™ BCA Protein Assay Kit. mCYP1A2 and mCYP3A11 activities were evaluated based on phenacetin O-deethylation and nifedipine oxidation activities, respectively. The incubation mixture of 500 µL consisted of microsomes, substrate ([…]), and NADPH. […] The final organic solvent concentration in the incubation mixture was not higher than 1%. Each experiment was repeated three times (duplicated each). Determination of the concentrations of metabolites of mCYP1A2 (paracetamol) and mCYP3A11 (dehydronifedipine) in the reaction was performed using HPLC Agilent 1260 Infinity II with mobile gradient phase between methanol and distilled water at an initial ratio of 20:80 (v:v) and UV detection (240 nm). Calibration curves for both CYP450 activities were created over a concentration range of 1–50 µM. Oxidized nifedipine concentrations were determined using HPLC as follows: UV detection at 235 nm with an isocratic mobile phase consisting of methanol and distilled water (70:30, v:v). […] In each analytical batch, quality control (QC) samples were run in duplicate at low, medium, and high concentrations. Acceptance criteria were four out of six QC analyses falling within 100 ± 15% of the nominal values.

Data set [2] concerns the target T1, rCYP1A2 (Homo sapiens, UniProt P05177).
T1 sequence (P05177 1-516): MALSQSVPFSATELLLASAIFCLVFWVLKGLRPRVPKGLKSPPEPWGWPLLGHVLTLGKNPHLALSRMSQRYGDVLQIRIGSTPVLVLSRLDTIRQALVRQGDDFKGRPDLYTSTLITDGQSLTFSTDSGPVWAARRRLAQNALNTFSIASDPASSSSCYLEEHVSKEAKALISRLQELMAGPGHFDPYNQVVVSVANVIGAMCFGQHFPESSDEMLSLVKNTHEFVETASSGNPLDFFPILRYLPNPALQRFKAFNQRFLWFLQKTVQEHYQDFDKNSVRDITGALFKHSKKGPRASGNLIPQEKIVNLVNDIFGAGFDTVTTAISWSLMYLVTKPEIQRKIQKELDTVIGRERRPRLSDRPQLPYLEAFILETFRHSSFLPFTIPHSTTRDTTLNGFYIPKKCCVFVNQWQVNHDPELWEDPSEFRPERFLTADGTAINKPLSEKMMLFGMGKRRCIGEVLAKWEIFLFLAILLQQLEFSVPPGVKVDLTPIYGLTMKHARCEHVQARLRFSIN
Briefly: luminogenic P450-Glo CYP450 inhibition assay, rCYP1A2. The note with it: three independent experiments. An excerpt:
(§1) The luminescent cytochrome P450 assay was used to determine CYP450-mediated (CYP1A2, 2C9, 2C19, 2D6, and 3A4) metabolism of atractylodin and β-eudesmol. The assay consisted of each recombinant human CYP450 (rCYP450), control membranes lacking P450 activity, a luminogenic CYP450 substrate (luciferin-ME substrate for rCYP1A2, luciferin-H substrate for rCYP2C9, luciferin-H EGE substrate for rCYP2C19, luciferin-ME EGE substrate for rCYP2D6, and luciferin-IPA substrate for rCYP3A4), KPO4 buffer, luciferin free water, NADPH regeneration system, and a luciferin detection reagent. The rCYP450 enzymes were generated from a baculovirus-infected insect cell expression system. The concentrations of the recombinant CYPs used were 0.5 (rCYP1A2 and rCYP2C9), 0.25 (rCYP2C19 and rCYP2D6) or 0.2 (rCYP3A4) pmol (0.5μL) per reaction. […] A luciferin product was produced after adding 25 µL of NADPH Regeneration System (solution A, solution B, and luciferin-free water) and incubated at 37 °C for 10 (rCYP1A2 and rCYP3A4), 20 (rCYP2C19 and rCYP2C9) or 30 (rCYP2D6) minutes. The reaction was stopped and converted to a luminescent signal after adding Luciferin Detection Reagent (50 µL) and incubated at 25 °C for 20 min. The luminescence signals obtained were determined using a Varioskan® Flash microplate reader (Waltham, MA, USA). The magnitude of luminescence in all of the samples represented CYP450 activity. […] All stock solutions were diluted with luciferin-free water until the final concentration of organic solvent was less than 0.25% (v/v) of the total reaction. The concentration range of atractylodin and β-eudesmol used were 2.74–686 µM and 2.25–562 µM, respectively. […] The concentration that inhibited the activity of each rCYP450 by 50% (IC50) was calculated using Calcusyn software (Cambridge, UK). Data are reported as the median (range) of the three independent experiments.

Data set [3] deals with rCYP2C19 (Homo sapiens, UniProt P33261). Briefly: luminogenic P450-Glo CYP450 inhibition assay, rCYP2C19. The note with it: three independent experiments.
Text: as §1

For data set [4], the target named is rCYP2C9 (Homo sapiens, UniProt P11712). Kind of data set: luminogenic P450-Glo CYP450 inhibition assay, rCYP2C9. The note with it: three independent experiments.
Text: as §1

Like-named read-outs stand apart in the source and are kept apart here.

rCYP2C9, sequence (P11712 whole entry): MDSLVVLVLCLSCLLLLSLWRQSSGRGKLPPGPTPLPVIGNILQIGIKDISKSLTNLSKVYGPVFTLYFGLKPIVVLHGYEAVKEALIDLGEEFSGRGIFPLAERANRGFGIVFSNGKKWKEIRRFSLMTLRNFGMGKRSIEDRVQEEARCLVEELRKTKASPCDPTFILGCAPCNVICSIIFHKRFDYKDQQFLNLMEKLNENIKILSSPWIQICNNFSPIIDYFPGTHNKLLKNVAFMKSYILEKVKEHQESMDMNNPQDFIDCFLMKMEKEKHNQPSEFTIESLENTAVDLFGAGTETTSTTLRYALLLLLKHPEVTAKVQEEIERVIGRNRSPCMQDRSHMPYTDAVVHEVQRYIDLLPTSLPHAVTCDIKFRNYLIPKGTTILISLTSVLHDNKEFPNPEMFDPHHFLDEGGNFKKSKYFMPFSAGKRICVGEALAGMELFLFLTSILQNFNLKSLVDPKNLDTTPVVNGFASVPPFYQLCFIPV
rCYP2C19, sequence (P33261 whole entry): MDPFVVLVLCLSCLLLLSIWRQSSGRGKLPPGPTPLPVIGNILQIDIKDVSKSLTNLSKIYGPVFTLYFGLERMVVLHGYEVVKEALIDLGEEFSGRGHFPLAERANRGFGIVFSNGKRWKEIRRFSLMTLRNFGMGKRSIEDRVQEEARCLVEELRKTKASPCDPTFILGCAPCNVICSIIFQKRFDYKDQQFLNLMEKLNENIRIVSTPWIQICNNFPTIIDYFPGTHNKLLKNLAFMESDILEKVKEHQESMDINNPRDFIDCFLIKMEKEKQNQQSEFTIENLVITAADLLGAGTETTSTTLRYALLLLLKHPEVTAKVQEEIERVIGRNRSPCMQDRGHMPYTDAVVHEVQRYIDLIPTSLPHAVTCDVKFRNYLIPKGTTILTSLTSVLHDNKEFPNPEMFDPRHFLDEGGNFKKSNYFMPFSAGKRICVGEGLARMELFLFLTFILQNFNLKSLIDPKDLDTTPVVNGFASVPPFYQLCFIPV

For the compound `C=C1CCC[C@]2(C)CC[C@@H](C(C)(C)O)C[C@@H]12` [β-Eudesmol], the “Paracetamol concentration (mCYP1A2 activity)” value in data set [1] (1 day, control 11.40) is 12.35 µM; in data set [1] (7 days, control 12.25), 11.80 µM; in data set [1] (14 days, control 12.80), 13.25 µM; in data set [1] (21 days, control 12.90, listed as β-eudesmol, 100 mg/kg), “significantly decreased”; in data set [1] (21 days, control 12.90, listed as β‐eudesmol, 100 mg/kg), 8.30 µM. Besides, the IC50 is more than 562 µM in data set [2] (Median IC50 (Range) rCYP1A2, median (range)); 173 µM in data set [3] (Median IC50 (Range) rCYP2C19, median (range)); 533 µM in data set [4] (Median IC50 (Range) rCYP2C9, median (range)).

In the case of `C/C=C/C#CC#C/C=C/c1ccco1` [Atractylodin], the “Paracetamol concentration (mCYP1A2 activity)” value in data set [1] (1 day, control 11.40, 100 mg/kg) is “significantly increased”; in data set [1] (1 day, control 11.40, listed as Atactylodin, 100 mg/kg), 15.80 µM; in data set [1] (7 days, control 12.25), 12.00 µM; in data set [1] (14 days, control 12.80) it was 14.50 µM; in data set [1] (21 days, control 12.90, 100 mg/kg) it was “significant decrease”; in data set [1] (21 days, control 12.90, listed as Atactylodin, 100 mg/kg), 10.60 µM. Further, the “Median IC50 (Range) rCYP1A2” value in data set [2] (median (range)) is reported as 90.6 (83.8–102.3) µg/ml. For the same compound, the IC50 in data set [2] (read-out: Median IC50 (Range) rCYP1A2, median (range)) is 497 µM; in data set [3] (read-out: Median IC50 (Range) rCYP2C19, median (range)), more than 686 µM; in data set [4] (read-out: Median IC50 (Range) rCYP2C9, median (range)), more than 686 µM. The “Median IC50 (Range) rCYP2C19” value in data set [3] (median (range)) was more than 125 µg/mL. Besides, the “Median IC50 (Range) rCYP2C9” value in data set [4] (median (range)) was more than 125 µg/mL.

Broadly, the IC50 is the concentration that inhibits the measured activity by half.

Values taken from article PMC10095747, “Modulatory Effects of Atractylodin and β-Eudesmol on Human Cytochrome P450 Enzymes: Potential Drug-Drug Interactions” (Molecules, 2023).
